Reference: patent US8329645B2, “Polymyxin derivatives and uses thereof” (priority 2008, dated 2012)
Read-outs that look alike come from different tables or passages of the source.

What was measured:
[1] = molecular target: brush-border membrane (BBM) from the renal cortex; assay: Inhibition of binding of radiolabelled gentamycin to brush-border membrane vesicles; details: rat renal cortex BBM vesicles; 20 μM [3H] gentamycin; 60 min at 4° C.
Excerpt: The binding of the compounds according to this invention to isolated brush-border membrane (BBM) from the renal cortex can be measured indirectly by measuring their ability to inhibit the binding of radiolabelled gentamycin to BBM. Accordingly, the compounds according to this invention that have less affinity to BBM than for example polymyxin B inhibit the binding of radiolabelled gentamycin to a lesser degree than does polymyxin B.
BBM was isolated from the renal cortex of male albino rats by using the Mg^2+/EGTA precipitation technique as described by Nagai et al. (2006). The binding of gentamycin was measured, according to the method described by Nagai et al. (2006) by incubating BBM vesicles (20 μl) in 10 mM HEPES (pH 7.5) with 300 mM mannitol in the presence of 20 μM [^3H] gentamycin (American Radiolabeled Chemicals, Inc. (St. Louis, Mo., U.S.A.) with or without the compound to be tested or a positive control. After an incubation of 60 min at 4° C., 1 ml of ice-cold buffer described above was added, and the mixture was filtered through a Millipore filter (0.45 μm; HAWP). The filter was washed with the buffer and the radioactivity remaining in the filter was measured by using a liquid scintillation counter. The IC50 values were determined as in Nagai et al. (2006) using the Hill equation.

[2] = test system: E. coli (ATCC25922 and IH3080), K. pneumoniae ATCC13883, and E. cloacae ATCC23355; assay: E-test sensitization by NAB7061, range over the tested strains; format: cell-based; details: four tested strains
Protocol: (§1) MICs were determined by using E-strips (Biodisk Ltd., Solna, Sweden) according to the manufacturer's instructions.

[3] = test system: E. coli ATCC25922; details: E. coli ATCC25922
Protocol: as §1
(§2) The strains originated from ATCC (11 strains), CCUG (11 strains), and NCTC (The National Collection of Type Cultures, Colindale, U.K.; 2 strains). Eight strains (the F-strains) were purchased from Mobidiag Ltd., Helsinki, Finland.

[4] = test system: K. pneumoniae ATCC13883; details: K. pneumoniae ATCC13883
Protocol: as §1, §2

[5] = test system: E. cloacae ATCC23355; assay: E-test MIC with or without NAB7061 (4 μg/ml), Mueller-Hinton agar; format: cell-based, Enterobacter cloacae
Protocol: as §1, §2

[6] = test system: E. coli IH3080; assay: as above; format: cell-based, Escherichia coli
Protocol: as §1, §2

[7] = test system: P. aeruginosa ATCC 27853; assay: E-test MIC of antibiotics on Mueller Hinton agar containing increasing concentrations of NAB739; format: cell-based, Pseudomonas aeruginosa
[8] = test system: both Acinetobacter strains (ATCC 19606 and F264); assay: E-test sensitization by NAB739, both strains; format: cell-based, Acinetobacter baumannii
[9] = test system: A. baumannii ATCC19606; assay: E-test MIC of antibiotics on Mueller Hinton agar containing increasing concentrations of NAB739; format: cell-based, Acinetobacter baumannii
[10] = test system: A. baumannii F264; assay: as above; format: cell-based, Acinetobacter baumannii
[11] = rat, Li et al. (2003), identical dosing and administration procedure, cited from earlier work
[12] = test system: Ac. baumannii F264; assay: E-test MIC with or without NAB7061 (4 μg/ml), Mueller-Hinton agar; format: cell-based, Acinetobacter baumannii; details: for MIC of carbapenem at NAB 7061 concn 0 μg/ml: A. baumannii F264, absence of NAB 7061; for MIC of antibiotic in the presence of 4 μg/ml of NAB 7061: Ac. baumannii F264
Protocol: as §1, §2

[13] = test system: Ac. baumannii F263; assay: as above; format: cell-based, Acinetobacter baumannii; details: for MIC of carbapenem at NAB 7061 concn 0 μg/ml: A. baumannii F263, absence of NAB 7061; for MIC of antibiotic in the presence of 4 μg/ml of NAB 7061: Ac. baumannii F263
Protocol: as §1, §2

[14] = test system: Ac. baumannii ATCC19606; assay: as above; format: cell-based, Acinetobacter baumannii; details: for MIC of carbapenem at NAB 7061 concn 0 μg/ml: A. baumannii ATCC19606, absence of NAB 7061; for MIC of antibiotic in the presence of 4 μg/ml of NAB 7061: Ac. baumannii ATCC19606
Protocol: as §1, §2

Compound | Sensitization factor to antibiotic (MIC without / with 4 μg/ml of NAB 7061) [3] | Sensitization factor to antibiotic (MIC without / with 4 μg/ml of NAB 7061) [4] | Sensitization factor to antibiotic (MIC without / with 4 μg/ml of NAB 7061) [5] | Sensitization factor to antibiotic (MIC without / with 4 μg/ml of NAB 7061) [6] | MIC of antibiotic in the presence of NAB739 ([7]; NAB 739 0 μg/ml) [µg/mL] | MIC of antibiotic in the presence of NAB739 ([7]; NAB 739 0.5 μg/ml) [µg/mL] | MIC of antibiotic in the presence of NAB739 ([7]; NAB 739 1 μg/ml) [µg/mL] | MIC of antibiotic in the presence of NAB739 ([7]; NAB 739 2 μg/ml) [µg/mL] | MIC of antibiotic in the presence of NAB739 ([7]; NAB 739 […]) [µg/mL] | MIC of antibiotic in the presence of NAB739 ([9]; NAB 739 0 μg/ml) [µg/mL] | MIC of antibiotic in the presence of NAB739 ([9]; NAB 739 0.5 μg/ml) [µg/mL] | MIC of antibiotic in the presence of NAB739 ([9]; NAB 739 1 μg/ml) [µg/mL] | MIC of antibiotic in the presence of NAB739 ([10]; NAB 739 0 μg/ml) [µg/mL] | MIC of antibiotic in the presence of NAB739 ([10]; NAB 739 0.5 μg/ml) [µg/mL] | MIC of antibiotic in the presence of NAB739 ([10]; NAB 739 1 μg/ml) [µg/mL] | other results
gentamycin [reference compound] | – | – | – | – | – | – | – | – | – | – | – | – | – | – | – | IC50 [1]: 90.2 ± 9.7 µM
CC[C@H]1OC(=O)[C@H](C)[C@@H](O[C@H]2C[C@@](C)(OC)[C@@H](O)[C@H](C)O2)[C@H](C)[C@@H](O[C@@H]2O[C@H](C)C[C@H](N(C)C)[C@H]2O)[C@](C)(O)C[C@@H](C)CN(C)[C@H](C)[C@@H](O)[C@]1(C)O [Azithromycin] | 24-64 | 31-43 | 32 | 31-94 | – | – | – | – | – | – | – | – | – | – | – | Sensitization factor to antibiotic at 4 μg/ml of NAB7061, range over the tested strains [2]: 31-94
CC(=O)O[C@H]1C[C@@]2(C)[C@@H](C[C@@H](O)[C@H]3[C@@]4(C)CC[C@@H](O)[C@@H](C)[C@@H]4CC[C@@]32C)/C1=C(\CCC=C(C)C)C(=O)O [Fusidic acid] | >43 | >4 | >8 | >43 | >256 | >256 | >256 | 192 | >256 | >256 | 4 | 1 | >256 | 3 | 1 | sensitization factors to antibiotic at NAB739 0.5 μg/ml [8]: 64-85
C/C(=C\C(=O)OCCCCCCCCC(=O)O)C[C@@H]1OC[C@H](C[C@@H]2O[C@H]2[C@@H](C)[C@H](C)O)[C@@H](O)[C@H]1O [Mupirocin] | 64-170 | 24-32 | 250-512 | 64-85 | – | – | – | – | – | – | – | – | – | – | – | Sensitization factor to antibiotic at 4 μg/ml of NAB7061, range over the tested strains [2]: 24-512
Colistin (polymyxin E) | – | – | – | – | – | – | – | – | – | – | – | – | – | – | – | clearance [11]: 5.2 ± 0.4 mL/min/kg; half-life [11]: 1.24 ± 0.22 h; renal clearance [11]: 0.010 ± 0.008 mL/min/kg; urinary recovery [11]: 0.18±0.14 % of dose in 24 h; volume of distribution [11]: 0.496 ± 0.06 L/kg; urinary recovery ([11]; listed as polymyxin E (colistin)): about 0.18±0.14 % of dose in 24 h
C[C@@H](O)[C@H]1C(=O)N2C(C(=O)O)=C(S[C@@H]3CN[C@H](C(=O)N(C)C)C3)[C@H](C)[C@H]12 [meropenem] | – | – | – | – | 0.25 | 0.25 | 0.25 | 0.25 | 0.25 | 1 | 0.25 | 0.125 | >32 | 1 | 0.38 | MIC of carbapenem at NAB 7061 concn 0 μg/ml [12]: 32 µg/mL; MIC of antibiotic in the presence of 4 μg/ml of NAB 7061 [12]: 4 µg/mL; MIC of carbapenem at NAB 7061 concn 0 μg/ml [13]: >32 µg/mL; MIC of antibiotic in the presence of 4 μg/ml of NAB 7061 [13]: 6 µg/mL; MIC of carbapenem at NAB 7061 concn 0 μg/ml [14]: 1.5 µg/mL; MIC of antibiotic in the presence of 4 μg/ml of NAB 7061 [14]: 0.75 µg/mL
C[C@@H](O)[C@H]1C(=O)N2C(C(=O)O)=C(SCCN=CN)C[C@H]12 [imipenem] | – | – | – | – | – | – | – | – | – | – | – | – | – | – | – | MIC of carbapenem at NAB 7061 concn 0 μg/ml [12]: 24 µg/mL; MIC of antibiotic in the presence of 4 μg/ml of NAB 7061 [12]: 6 µg/mL; MIC of carbapenem at NAB 7061 concn 0 μg/ml [13]: >32 µg/mL; MIC of antibiotic in the presence of 4 μg/ml of NAB 7061 [13]: 8 µg/mL; MIC of carbapenem at NAB 7061 concn 0 μg/ml [14]: 0.38 µg/mL; MIC of antibiotic in the presence of 4 μg/ml of NAB 7061 [14]: 0.38 µg/mL
CN[C@H](CC(C)C)C(=O)N[C@H]1C(=O)N[C@@H](CC(N)=O)C(=O)N[C@H]2C(=O)N[C@H]3C(=O)N[C@H](C(=O)N[C@H](C(=O)O)c4cc(O)cc(O)c4-c4cc3ccc4O)[C@H](O)c3ccc(c(Cl)c3)Oc3cc2cc(c3O[C@@H]2O[C@H](CO)[C@@H](O)[C@H](O)[C@H]2O[C@H]2C[C@](C)(N)[C@H](O)[C@H](C)O2)Oc2ccc(cc2Cl)[C@H]1O [Vancomycin] | 5 | 1 | 32 | 2.5 | >256 | >256 | >256 | >256 | >256 | >256 | 3 | 1 | >256 | 3 | 1 | sensitization factors to antibiotic at NAB739 0.5 μg/ml [8]: 85
